Results reported in US20230250127A1, “MODIFIED mRNA 5'-CAP ANALOGS” (Nanjing GeneLeap Biotechnology Co., Ltd., priority 2021, published 2023).
“Also recorded” adds a separate entry of the source.

Tests used:
[1] = test system: C57BL/6 mice; assay: In vivo Fluc expression of capped mRNA-LNPs by in vivo imaging system (IVIS); settings: for expression levels of Fluc protein in liver and muscle (injection site) tissues: Experiment 2, by in vivo imaging system and by ex vivo Luciferase assay, vs Cleancap AG (FIG. 13); for in vivo expression levels of Fluc protein (in vivo imaging system): vs Cleancap AG-mRNA; for Fluc expression in vivo, summary of FIGS. 10-13: mice, intramuscular mRNA-LNPs, compared to Cleancap AG
Procedure: (§1) Female C57BL/6 mice 7-8 weeks of age were randomly allocated to experimental groups, 30 mice per group. For each group, 6 experimental conditions were set up: 2 mRNA doses (0.01, 0.1 mg/kg) and 3 time points 6 h, 24 h, 48 h (5 mice/dose/time point). A single intramuscular injection of mRNA-loaded LNPs was performed (injection volume 40 µl). At 6 h, 24 h and 48 h post-injection, 5 animals/dose in each group were taken for in vivo tissue and organ imaging. The animals were shaved and intraperitoneally injected with 200 µL of a d-luciferin solution (15 mg/mL in DPBS) D-luciferin and anesthetized 8 min later using isoflurane (5% induction, 2% maintenance in pure oxygen). The emitted light was measured by in vivo imaging system (IVIS) exactly 12 min after d-luciferin injection. Whole body supine and lateral position imaging was carried out.
(§2) After Whole body imaging, the animals were euthanized, and the leg muscles (injection site) were harvested in Experiment 1; muscles and livers were harvested in Experiment 2. The emitted light by the tissues/organs was measured by IVIS in less than 25 min after d-luciferin injection.

[2] = test system: HeLa cells; assay: Fluc mRNA carrying 5′-cap analogs, translation in HeLa cells (luciferase luminescence); format: cell-based; settings: for expression levels of Fluc protein by mRNAs containing different 5′caps: HeLa; for Fluc expression in vitro, summary of FIGS. 7-9: HeLa cells, compared to the control Cleancap AG
Procedure: The novel 5′ -caps synthesized were incorporated into Firefly luciferase (Fluc) mRNA using pGL-T7-AG-nUTR002-Fluc-HBB3UTR-30+70A-BpiI (Kana-AGG-BpiI Plasmid Size: 4856bp). Then, the dose responses of the new cap analogs were compared to commercially available Cap analog from Trilink m7G(5′)ppp(5′)(2′OMeA)pG (cat no. N-7113).
Briefly, 1 µg GLuc (AGG plasmid) template per reaction was transcribed in vitro using a High Yield T7 mRNA synthesis kit (NEB, E2040S). Cap analogs were added by co-transcription. Transcription was carried out for 2 hours, followed by DNase I treatment for 15 min. Ratio of NTP to Cap analogs, 10:4 (10 mM NTP each, 4 mM cap).
Expected mRNA length: 2008 nt. Then the small scale IVT mRNAs were purified using DNA Selection Magnetic beads (Yeasen,12601ES56), Large scale IVT mRNAs were purified using POROS™ Oligo (dT)25 (Thermofisher, A47383) and Ultrafiltration use Amicon® Ultra-15(Merk, UFC910024), the RNA was quantitated using Nanodrop, and 500 ng of each mRNA was run on agarose E-Gel, mRNAs were run on a 2100 bioanalyzer or CE (PA800) for checking mRNA integrity, HPLC for Purity, DNAzyme-PAGE for Capping efficiency and polyA quality. Large scale mRNA were subjected to more QC (Capping/polyA tail-LC-MS, Template DNA residual-qPCR, dsRNA-Elisa, pH).
Novel 5 ′-cap structures that were synthesized were incorporated into Firefly luciferase (Fluc) mRNA via IVT as described above and then assessed for translation efficacy in HeLa cells following transfection. Briefly, HeLa cells were seeded in a 96-well plate (20000cells/0.1 ml/well). The next day (approx. ∼80-90% confluent), the cells were transfected with 25, 50, or 100 ng/well of Fluc-mRNA samples using 2 µl/ml of Lipofectamine MessengerMax (Thermo Scientific, cat#LMRNA015) or in-house formulated lipid-nanoparticles (LNPs). The cells were incubated for another 24 h. To monitor the functional (translation) activity of Fluc mRNAs into which different 5′cap analogs have been incorporated, the Fluc protein expression was evaluated by adding 60 µl Bio Lite Luciferase Assay System (Vazyme, cat # DD1201-02) into each well, incubating the plates at room temperature for 10 min, and measuring the luminescence using a multimode plate reader luminometer. All wells were assayed in triplicates. Statistical analysis was performed using two-way ANOVA followed by uncorrected Fisher’s LSD.

[3] = test system: C57BL/6 mice; assay: Ex vivo Luciferase assay of tissue homogenates after mRNA-LNP injection; format: in vivo; settings: Experiment 1, low and high dose regimens, different time points; vs Cleancap AG-mRNA
Procedure: as §1, §2
Next, tissue lysates were prepared by homogenization and Glo Lysis Buffer 1X (Abcam cat # ab6789) treatment. The lysates were centrifuged at 4° C. for 15 min at 10000 g, and the supernatants were used for total protein quantification and luciferase activity assessment. […]

[4] = test system: C3 tumors; assay: C3 Tumor Model, capped HPV E6/E7 mRNA; format: in vivo; settings: GL2288 mRNA, mid dose (0.05 mg/Kg), intramuscular Day 0; vs CC
Procedure: As soon as the C3 tumors reached 100 mm^3, our HPV E6/E7 mRNA sequence (GL2281) (wherein the sequence encoding HPV E6-E7 is SEQ ID NO:2), capped with either CleanCap, GL-Cap5 or GL-Cap1, was administered intramuscularly at 10 µg per dose, with the first dose on Day 0 and second dose on Day 10. The PBS and 10 µg of CleanCap-capped Luciferase mRNA (FF luciferase) were used for comparison.
As soon as the C3 tumors reached 100 mm3, our HPV E6/E7 mRNA sequence (GL2288) (wherein the sequence encoding HPV E6-E7 is SEQ ID NO:1), capped with either CleanCap (CC), or GL-Cap7, was administered intramuscularly at different doses at Day 0. The CleanCap-capped Luciferase mRNA (FF Luciferase) was used for comparison.

[5] = Experiment 2, single intramuscular dose 0.1 mg/kg, 6 h after injection

Row | SMILES | expression levels of Fluc protein in liver and muscle (injection site) tissues [1] | expression levels of Fluc protein by mRNAs containing different 5′caps ([2]; 24 h, in-house LNP formulation, low doses (FIG. 7B)) | in vivo expression levels of Fluc protein (in vivo imaging system) [1, 5] | expression levels of Fluc protein in muscle tissue homogenates (ex vivo Luciferase assay) [3] | in vivo expression levels of Fluc protein (in vivo imaging system) ([1]; Experiment 1, single intramuscular dose of mRNA-LNPs, low and high dose regimens, 6 h, 24 h, 48 h) | Fluc expression in vivo, summary of FIGS. 10-13 [1] | Fluc expression in vitro, summary of FIGS. 7-9 [2] | expression levels of Fluc protein by mRNAs containing different 5′caps ([2]; 24 h, in-house LNP formulation, high and medium doses (FIG. 7B)) | expression levels of Fluc protein by mRNAs containing different 5′caps ([2]; 24 h post-transfection, Lipofectamine MessengerMax, different tested doses, vs Cleancap AG (FIG. 7A)) | anti-tumor efficacy [4]
1 | COCCOC1C(O)[C@@H](COP(=O)([O-])OP(=O)(O)OP(=O)(O)OC[C@]23COC(C2OP(=O)(O)OC[C@H]2O[C@@H](n4cnc5c(=O)[nH]c(N)nc54)C(O)C2O)[C@H](n2cnc4c(N)ncnc42)O3)O[C@H]1n1c[n+](C)c2c(=O)[nH]c(N)nc21 (some centres unmarked) [GL-Cap8, 7m-2-′MOE-Gppp(locked)ApG] | better; also recorded: highest expression levels | stronger expression than Cleancap AG (Trilink) | – | – | – | – | – | – | – | –
2 | C[n+]1cn([C@@H]2O[C@H](COP(=O)([O-])OP(=O)(O)OP(=O)(O)OC[C@]34COC(C3OP(=O)(O)OC[C@]35COC(C3OP(=O)(O)OC[C@H]3O[C@@H](n6cnc7c(=O)[nH]c(N)nc76)C(O)C3O)[C@H](n3cnc6c(N)ncnc63)O5)[C@H](n3cnc5c(N)ncnc53)O4)C(O)C2O)c2nc(N)[nH]c(=O)c21 (some centres unmarked) [GL-Cap1, 7mGppp(locked)Ap(locked)ApG] | better | – | slightly higher than in the Cleancap AG group, but without statistical significance | – | – | – | – | – | – | –
3 | C[n+]1cn([C@@H]2O[C@H](COP(=O)([O-])OP(=O)(O)OP(=O)(O)OC[C@]34COC(C3OP(=O)(O)OC[C@H]3O[C@@H](n5cnc6c(=O)[nH]c(N)nc65)C(O)C3O)[C@H](n3cnc5c(N)ncnc53)O4)C(O)C2O)c2nc(N)[nH]c(=O)c21 (some centres unmarked) [GL-Cap5, 7mGppp(locked)ApG] | comparable | – | significantly higher Fluc expression levels | higher than with Cleancap AG-mRNA | significantly higher Fluc expression levels; also recorded: the strongest expression level among the tested caps | significantly stronger expression | stronger expression | significantly higher than all the other tested caps | significantly higher expression level at different tested doses | –
4 | C[n+]1cn([C@@H]2O[C@H](COP(=O)([O-])OP(=O)(O)OP(=O)(O)OC[C@]34COC(C3OP(=O)(O)OC[C@H]3O[C@@H](n5cnc6c(=O)[nH]c(N)nc65)C(O)C3O)[C@H](n3cnc5c(N)ncnc53)O4)C(O)C2F)c2nc(N)[nH]c(=O)c21 (some centres unmarked) [GL-Cap7, 7m-2′F-Gppp(locked)ApG] | better; also recorded: highest expression levels | – | significantly higher Fluc expression levels | – | – | significantly stronger expression | stronger expression | – | – | higher anti-tumor efficacy than CC
